Laboratory results published in patent US20260137788A1, “INFLAMMATION STIMULI RESPONSIVE PEPTIDE BRUSH POLYMERS” (NORTHWESTERN UNIVERSITY, priority 2021, published 2026).
Ends that are not written are not given here.

How the values were obtained:
[1] = system: Sprague Dawley rats, IR MI; experiment: Efficacy on LV function by MRI; format: in vivo, rat; details: tail-vein injection 1-day post-MI, MRI 3 days and 5 weeks post-injection
Method: Methods 5.1: Assessing Efficacy of L-PLPMMPi on LV Function. Male and female Sprague Dawley rats undergo IR procedures as previously described in Example 2. Prior to surgery, all animals undergo magnetic resonance imaging (MRI) to establish a baseline for LV ejection fraction (EF), wall thickness, end diastolic volume (EDV), and end systolic volume (ESV). […] MRI is performed at 3 days and 5 weeks (n=7 per sex for saline, MMPi, L-PLP, and L-PLPMMPi treated animals with randomized groups for each harvest timepoint) post-injection to assess cardiac function via LV EF, wall thickness, EDV, and ESV. For power analysis, an a value of 0.05 and a power of 0.8 was used to determine experimental sample sizes with additional rats based on an expected 30% mortality from surgical procedures. A 2-way ANOVA with post-hoc Tukey Test is then performed with significance at α=0.05.

[2] = Dynamic Light Scattering (DLS) average diameter; format: physicochemical; details: in PBS
Method: (§1) Characterization Results: The molar mass of both unlabeled and labeled AAK20 PLPs were analyzed by SDS PAGE using a polyacrylamide gel with a pore gradient of 4-15% (cat #: 4561083) and Precision Plus Kaleidoscope Protein Standard (cat #: 1610395). The mass of both AAK20 and Cy5.5-AAK20 samples were ˜20 kDa and found to correspond with the average molecular weight of an AAK PLP with a DP of 20 (FIG. 9A). […] The diffusion rate of AAK20 in deuterated water was analyzed by Diffusion Ordered Spectroscopy (DOSY) NMR. […] Additional physical characterization of AAK20 by dry state Transmission Electron Microscopy (TEM) was performed to provide complementary data to SDS PAGE, DLS, and DOSY NMR.

[3] = Diffusion Ordered Spectroscopy (DOSY) NMR diffusion rate; format: physicochemical; details: in deuterated water
Method: ^1H Nuclear Magnetic Resonance (^1H NMR): ^1H NMR data was recorded on either a Bruker Avance III HD 500 MHz spectrometer, a Bruker Avance III 600 MHz spectrometer, or a Bruker Neo 600 MHz spectrometer. The 500 MHz spectrometer was primarily used for small molecule characterization, the Bruker Avance III 600 MHz spectrometer was used for polymerization kinetics studies, and the Bruker Neo 600 MHz spectrometer was used for diffusion ordered spectroscopy (DOSY) studies done on PLPs in deuterated buffered saline. ^1H NMR chemical shifts are given in reference to residual proton peaks from either the DMSO-d6 or the DMF-d7 solvent.
as §1

[4] = Dry state Transmission Electron Microscopy (TEM); format: physicochemical
Method: as §1

Row | Compound | LV ejection fraction (EF), pre- vs post-MI (MRI) [1] | end diastolic volume (EDV), pre- vs post-MI (MRI) [1] | end systolic volume (ESV), pre- vs post-MI (MRI) [1] | wall thickness, pre- vs post-MI (MRI) [1] | average diameter by DLS [2] [nm] | diffusion rate by DOSY NMR [3] | morphology by dry state TEM [4]
1 | CC(C)[C@H](NS(=O)(=O)c1ccc(-c2ccc(Br)cc2)cc1)C(=O)O [MMPi, PD166793] | decreased | increased | increased | negligible differences | – | – | –
2 | AAK20: PLP made by ROMP of norbornene AAK monomer (SEQ ID NO: 142, AAKAAKAA) at 20 molar equivalence to Grubbs catalyst; unlabeled (AAKAAKAA-NH2; also: norbornene monomer polymerized by ROMP into PLP) | – | – | – | – | < 10 | approximately 1×10^−6 cm^2/s | nanoscale globular assemblies
